According to patent publication US11702404B2, “GLP-1R modulating compounds” (priority 2019, dated 2023):
Like-named read-outs stand apart in the source and are kept apart here.

How the values were obtained:
GLP-1R = GLP-1R (Homo sapiens, UniProt P43220); assay: GLP-1R activation: cAMP increase in CHO cells stably expressing GLP-1R; format: cell-based
[1] = Microsomal stability, human liver microsomes (predicted hepatic clearance); conditions: predicted from in vitro microsomal stability data
[2] = cAMP increase, CHO cells stably expressing GLP-1R, 10 point dose response, 30 minutes incubation, read-out: EC50

Sequence of GLP-1R (P43220 24-463): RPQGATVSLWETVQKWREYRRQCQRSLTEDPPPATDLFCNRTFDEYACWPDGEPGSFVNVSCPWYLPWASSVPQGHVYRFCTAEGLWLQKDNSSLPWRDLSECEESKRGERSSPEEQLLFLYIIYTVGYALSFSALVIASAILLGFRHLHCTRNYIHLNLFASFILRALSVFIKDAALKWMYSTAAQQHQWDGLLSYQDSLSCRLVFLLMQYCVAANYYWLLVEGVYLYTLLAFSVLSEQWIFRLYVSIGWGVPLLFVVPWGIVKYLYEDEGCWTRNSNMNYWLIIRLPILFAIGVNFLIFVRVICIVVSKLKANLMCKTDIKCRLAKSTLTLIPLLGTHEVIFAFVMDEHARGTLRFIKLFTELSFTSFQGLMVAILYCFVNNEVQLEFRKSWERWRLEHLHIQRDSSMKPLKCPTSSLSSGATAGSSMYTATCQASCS

SMILES	EC50 (GLP-1R; [2]) [nM]	Predicted Hepatic Clearance (Pred. Cl.) [1] [mL/min/kg]	EC50 (GLP-1R; read-out: EC50) [nM]	EC50 (GLP-1R; EC50 (nM)) [nM]
N#Cc1ccc(COc2cccc(-c3ccc(Cc4nc5ccc(C(=O)O)cc5n4Cc4cncn4C4CC4)c(F)c3)c2)c(F)c1 [Example 8, 2-((3′-((4-cyano-2-fluorobenzyl)oxy)-3-fluoro-[1,1′-biphenyl]-4-yl)methyl)-1-((1-cyclopropyl-1H-imidazol-5-yl)methyl)-1H-benzo[d]imidazole-6-carboxylic acid]	26.4	4.33		
N#Cc1ccc(COc2cccc(-c3cc(F)c(Cc4nc5ccc(C(=O)O)cc5n4[C@H]4CC[C@@H]4O)cc3F)n2)c(F)c1 [Example 705]	73.2	13.3		
CC(=O)N1CCC[C@@H]1Cn1c(Cc2cc(F)c(-c3cccc(OCc4ccc(C#N)cc4F)n3)cc2F)nc2ccc(C(=O)O)cc21 [Example 591, (R)-1-((1-acetylpyrrolidin-2-yl)methyl)-2-(4-(6-((4-cyano-2-fluorobenzyl)oxy)pyridin-2-yl)-2,5-difluorobenzyl)-1H-benzo[d]imidazole-6-carboxylic acid]		7	0.17	
CO[C@@H]1CCC[C@@H]1n1c(Cc2cc(F)c(-c3cccc(OCc4ccc(C#N)cc4F)n3)cc2F)nc2ccc(C(=O)O)cc21 [Example 708]	0.64	7.5		
Cc1conc1Cn1c(Cc2ccc(-c3cccc(OCc4ccc(C#N)cc4F)n3)cc2F)nc2ccc(C(=O)O)cc21 [Example 490, 2-(4-(6-((4-cyano-2-fluorobenzyl)oxy)pyridin-2-yl)-2-fluorobenzyl)-1-((4-methylisoxazol-3-yl)methyl)-1H-benzo[d]imidazole-6-carboxylic acid]	5.53	3.67		
COCCn1c(Cc2ccc(-c3cccc(OCc4ccc(C(F)(F)F)cc4OC)n3)cc2F)nc2ccc(C(=O)O)cc21 [Example 459, 2-(2-fluoro-4-(6-((2-methoxy-4-(trifluoromethyl)benzyl)oxy)pyridin-2-yl)benzyl)-1-(2-methoxyethyl)-1H-benzo[d]imidazole-6-carboxylic acid]	2.35	<1.83		
CC1(Cn2c(Cc3ccc(-c4cccc(OCc5ccc(C#N)cc5F)n4)cc3F)nc3ccc(C(=O)O)cc32)CCO1 (centres unmarked) [Example 365, 2-(4-(6-((4-cyano-2-fluorobenzyl)oxy)pyridin-2-yl)-2-fluorobenzyl)-1-((2-methyloxetan-2-yl)methyl)-1H-benzo[d]imidazole-6-carboxylic acid]	0.6	4.67		
COCCn1c(Cc2ccc(-c3cccc(OCc4ccccc4SC(F)(F)F)n3)cc2F)nc2ccc(C(=O)O)cc21 [Example 248, 2-(2-fluoro-4-(6-((2-((trifluoromethyl)thio)benzyl)oxy)pyridin-2-yl)benzyl)-1-(2-methoxyethyl)-1H-benzo[d]imidazole-6-carboxylic acid]	3560	17.8		
COCCn1c(Cc2c(F)cc(-c3cccnc3OCc3ccccc3)cc2F)nc2ccc(C(=O)O)cc21 [Example 186, 2-(4-(2-(benzyloxy)pyridin-3-yl)-2,6-difluorobenzyl)-1-(2-methoxyethyl)-1H-benzo[d]imidazole-carboxylic acid]	812	11.5		
COC[C@H](Cn1c(Cc2cc(F)c(-c3cccc(OCc4ccc(C#N)cc4F)n3)cc2F)nc2ccc(C(=O)O)cc21)OC [Example 620]		6.67		7.5
COCCn1c(Cc2ccc(-c3cccc(OCc4ccc(C(F)(F)F)nc4F)n3)cc2F)nc2ccc(C(=O)O)cc21 [Example 487, 2-(2-fluoro-4-(6-((2-fluoro-6-(trifluoromethyl)pyridin-3-yl)methoxy)pyridin-2-yl)benzyl)-1-(2-methoxyethyl)-1H-benzo[d]imidazole-6-carboxylic acid]	100	5.33		
COC1(Cn2c(Cc3cc(F)c(-c4cccc(OCc5ccc(C#N)cc5F)n4)cc3F)nc3ccc(C(=O)O)cc32)CCOC1 (centres unmarked) [Example 627]	2.19	7.83		
O=C(O)c1ccc2nc(Cc3cc(F)c(-c4cccc(OCc5ccc(Cl)cc5F)n4)cc3F)n(CC3(CF)CC3)c2c1 [Example 432, 2-(4-(6-((4-chloro-2-fluorobenzyl)oxy)pyridin-2-yl)-2,5-difluorobenzyl)-1-((1-(fluoromethyl)cyclopropyl)methyl)-1H-benzo[d]imidazole-6-carboxylic acid]	2.01	<1.83		
COCCn1c(Cc2ccc(-c3cccc(OCc4ccc(C#N)cc4F)n3)c(F)c2)nc2ccc(C(=O)O)cc21 [Example 3, 2-(4-(6-((4-cyano-2-fluorobenzyl)oxy)pyridin-2-yl)-3-fluorobenzyl)-1-(2-methoxyethyl)-1H-benzo[d]imidazole-6-carboxylic acid]		3.83		10.3
N#Cc1ccc(COc2cccc(-c3cc(F)c(Cc4nc5ccc(C(=O)O)cc5n4C[C@@H]4CCCO4)cc3F)n2)c(F)c1 [Example 840]	1.11	4.83		
COCCn1c(Cc2cc(F)c(-c3cccc(OCc4ccc(Cl)cc4F)n3)cc2F)nc2ccc(C(=O)O)cc21 [Example 563, 2-(4-(6-((4-chloro-2-fluorobenzyl)oxy)pyridin-2-yl)-2,5-difluorobenzyl)-1-(2-methoxyethyl)-1H-benzo[d]imidazole-6-carboxylic acid]	1	3.67		
COCCn1c(Cc2cc(F)c(-c3cccc(OCc4ccc(C#N)cc4OC)n3)cc2F)nc2ccc(C(=O)O)cc21 [Example 436, 2-(4-(6-((4-cyano-2-methoxybenzyl)oxy)pyridin-2-yl)-2,5-difluorobenzyl)-1-(2-methoxyethyl)-1H-benzo[d]imidazole-6-carboxylic acid]	0.44	<1.83		
COCCn1c(Cc2ccc(-c3cccc(OCc4ccc(C#Cc5cncnc5)cc4F)n3)cc2F)nc2ccc(C(=O)O)cc21 [Example 842, 2-(2-fluoro-4-(6-((2-fluoro-4-(pyrimidin-5-ylethynyl)benzyl)oxy)pyridin-2-yl)benzyl)-1-(2-methoxyethyl)-1H-benzo[d]imidazole-6-carboxylic acid]	4.73	1.83		
COC[C@H]1C[C@H](n2c(Cc3cc(F)c(-c4cccc(OCc5ccc(C#N)cc5F)n4)cc3F)nc3ccc(C(=O)O)cc32)C1 [Example 731]	290	10.3		
COCCn1c(Cc2ccc(-c3cccc(OCc4ccccc4COC)n3)cc2F)nc2ccc(C(=O)O)cc21 [Example 496, 2-(2-fluoro-4-(6-((2-(methoxymethyl)benzyl)oxy)pyridin-2-yl)benzyl)-1-(2-methoxyethyl)-1H-benzo[d]imidazole-6-carboxylic acid]	2000	18.2		
COCCNC(=O)C(Cn1c(Cc2ccc(-c3cccc(OCc4ccc(C#N)cc4F)n3)cc2F)nc2ccc(C(=O)O)cc21)OC (single isomer, unassigned) [Example 328, 2-(4-(6-((4-cyano-2-fluorobenzyl)oxy)pyridin-2-yl)-2-fluorobenzyl)-1-(2-methoxy-3-((2-methoxyethyl)amino)-3-oxopropyl)-1H-benzo[d]imidazole-6-carboxylic acid]	26.5	11		
N#Cc1ccc(COc2nccc(-c3ccc(Cc4nc5ccc(C(=O)O)cc5n4CC4(CF)CC4)cc3F)n2)c(F)c1 [Example 350, 2-(4-(2-((4-cyano-2-fluorobenzyl)oxy)pyrimidin-4-yl)-3-fluorobenzyl)-1-((1-(fluoromethyl)cyclopropyl)methyl)-1H-benzo[d]imidazole-6-carboxylic acid]	0.79	6.33		
CC1(Cn2c(Cc3ccc(-c4cccc(OCc5ccc(C#N)cc5F)n4)cc3F)nc3ccc(C(=O)O)nc32)CC1 [Example 18, 2-(4-(6-((4-cyano-2-fluorobenzyl)oxy)pyridin-2-yl)-2-fluorobenzyl)-3-((1-methylcyclopropyl)methyl)-3H-imidazo[4,5-b]pyridine-5-carboxylic acid]	3.6	2.5		
CC(=O)N1CC[C@@H]1Cn1c(Cc2ccc(-c3cccc(OCc4ccc(C#N)cc4F)n3)cc2F)nc2ccc(C(=O)O)cc21 [Example 483, (R)-1-((1-acetylazetidin-2-yl)methyl)-2-(4-(6-((4-cyano-2-fluorobenzyl)oxy)pyridin-2-yl)-2-fluorobenzyl)-1H-benzo[d]imidazole-6-carboxylic acid]		2.5	3.94	
N#Cc1ccc(COc2cccc(-c3ccc(Cc4nc5ccc(C(=O)O)cc5n4CC4(CF)CC4)c(C#N)c3)n2)c(F)c1 [Example 286, 2-(2-cyano-4-(6-((4-cyano-2-fluorobenzyl)oxy)pyridin-2-yl)benzyl)-1-((1-(fluoromethyl)cyclopropyl)methyl)-1H-benzo[d]imidazole-6-carboxylic acid]	21.2	2.62		
COCCn1c(Cc2cnc(-c3cccc(OCc4ccc(C#N)cc4F)n3)c(F)c2)nc2ccc(C(=O)O)cc21 [Example 855]	12.6	5.5		
COCC(COC)n1c(Cc2cc(F)c(-c3cccc(OCc4ccc(C#N)cc4F)n3)cc2F)nc2ccc(C(=O)O)cc21 [Example 732]	169	8.17		
COCCn1c(Cc2ccc(-c3nc(OCc4ccc(C#N)cc4F)c(F)cc3F)cc2F)nc2ccc(C(=O)O)cc21 [Example 73, 2-(4-(6-((4-cyano-2-fluorobenzyl)oxy)-3,5-difluoropyridin-2-yl)-2-fluorobenzyl)-1-(2-methoxyethyl)-1H-benzo[d]imidazole-6-carboxylic acid]	6.13	4.5		
